Data published in patent US20040081618A1, “Method of screening physiologically active substance” (priority 2000, published 2004).

Columns and labels:
[1] = tested on: HL-60 cells; experiment: Analysis of expression using DNA microarray (740 clones from DNA microbeads screening) in TPA-treated differentiated HL-60 cells; format: cell-based, human; settings: 4 mM DGE 100 μL in 10 mL, 6 hours, then TPA, RNA 4 hours thereafter, expression ratio 0.55 or less or 1.8 or more
Experimental: The reaction for PCR was carried out by using a primer pair having the sequences shown in SEQ ID NO: 10 and SEQ ID NO: 11 of Sequence Listing, with the 740 clones of plasmids obtained in Example 3 as a template. Next, the amplified product was purified by ethanol precipitation, and thereafter the product was dissolved in 1×SolutionT (manufactured by Takara Shuzo Co., Ltd.) so as to have a concentration of 0.3 μg/μl, and this solution was used as a spotting solution. The spotting solution was spotted on MAS-coated slide glass (manufactured by Matsunami Glass), amino-group carrying slide glass, by using Affymetrix 417 Arrayer (manufactured by Affymetrix). The spotted glass was incubated at 37° C. and humidity of 90% for 1 hour, and thereafter cross-linked by UV irradiation at energy of 60 mJ/cm^2. Further, the slide glass was washed once with 0.2% SDS and then twice with distilled water, and thereafter immersed in a blocking solution comprising 2.75 g of succinic anhydride, 162.5 ml of N-methyl-2-pyrrolidone and 15 ml of 1 M borate buffer (pH 8.0) for 20 minutes, to block free amino groups. Next, the slide glass was washed twice with distilled water and subjected to thermal denaturation in boiling water for 2 minutes, and rapidly cooled in 100% ethanol at ice temperature. Thereafter, the slide glass was dried by a low-speed centrifugation at 1000 rpm or so, and used for the following experiment. […]
A PolyA(+) RNA was prepared from HL-60 cells prepared in item (2) of Example 4 by using Trizol Reagent (manufactured by Gibco BRL) and Oligotex-dT30 <Super> (manufactured by Takara Shuzo Co., Ltd.) in accordance with the protocol for each of the kits. Next, each of cDNAs labeled with Cy3 and Cy5 was prepared by using RNA Fluorescence Labeling Core Kit (M-MLV Version) (manufactured by Takara Shuzo Co., Ltd.) in accordance with the protocol for the kit with 1.0 μg of PolyA(+) RNA as a template, and their cDNAs were mixed in the combinations of the sample RNA shown in Table 8.
Next, hybridization of the DNA microarray prepared in item (1) of Example 4 with the above-mentioned mixtures (4 kinds) of Cy3-labeled cDNA and Cy5-labeled cDNA was carried out in accordance with the instruction manual of IntelliGene (manufactured by Takara Shuzo Co., Ltd.), and the array was subjected to procedures of washing and drying. Subsequently, the fluorescence images were obtained for Cy3 (excitation wavelength: 532 nm, detection wavelength: 570 nm) and Cy5 (excitation wavelength: 635 nm, detection wavelength: 660 nm) by using Affymetrix 428 Array Scanner (manufactured by Affymetrix). […]

[2] = tested on: HL-60 cells; experiment: Gene expression analysis with Human Cytokine CHIP (ver. 1.0) in TPA-treated neutrophile-like differentiated HL-60 cells; format: cell-based; settings: genes showing fluctuation by TPA; 100 μL of 4 mM DGE aqueous solution added to 10 mL of 10^6 cells/mL, 6 hours, then TPA, total RNA 4 hours thereafter
Experimental: HL-60 cells (ATCC CCL-240) were suspended in RPMI 1640 medium (manufactured by Bio Whittaker, 12-702F) containing 10% fetal bovine serum (manufactured by JRH Biosciences) and 1.3% dimethyl sulfoxide, and the cells were cultured at 37° C. for one week in the presence of 5% carbon dioxide gas to induce differentiation to neutrophile-like cells.
The cells obtained as described above were collected by centrifugation, and suspended in 10% fetal bovine serum-containing RPMI 1640 medium so as to have a concentration of 10^6 cells/mL, and 10-mL portions of the cells were added to a 10-cm petri dish. […]
Twenty-five micrograms of each of the total RNAs obtained as described above and 100 pg of λ poly A^+ RNA-A (manufactured by Takara Shuzo Co., Ltd., TX802) were subjected to synthesis reaction of fluorescence-labeled cDNA by using RNA Fluorescence Labeling Core Kit (manufactured by Takara Shuzo Co., Ltd., TX807) and 1 mM FluoroLink Cy3-dUTP or Cy5-dUTP (manufactured by Amersham-Pharmacia Biotech, PA53022(Cy3), PA55022(Cy5) in accordance with the instruction for the kit and the resulting cDNA was purified. The solutions of fluorescence-labeled DNA were mixed in the combination of Table 4, and the mixture was subjected to a chloroform-isoamyl alcohol (24:1) extraction. […]

[3] = tested on: plastic adherent monocytes; experiment: Gene expression analysis with Human Cytokine CHIP (ver. 2.0) in LPS-treated plastic adherent monocytes; format: cell-based
Experimental: Four-hundred milliliters of blood was collected from a human normal individual donor. The collected blood was diluted 2-folds with PBS(−), overlaid on Ficoll-paque (manufactured by Pharmacia), and centrifuged at 500×g for 20 minutes. The peripheral blood mononuclear cells (PBMCs) in the intermediate layer was collected with a pipette, and washed with RPMI 1640 medium (manufactured by Bio Whittaker). The collected PBMCs were suspended in a storage solution of 90% FCS (manufactured by JRH Biosciences)/10% dimethyl sulfoxide, and stored in liquid nitrogen. During the experiment, these stored PBMCs were rapidly melted in water bath at 37° C., and washed with RPMI 1640 medium containing 10 μg/ml Dnase (manufactured by Calbiochem). Thereafter, the number of living cells was calculated by trypan blue staining method, and subjected to each experiment.
PBMCs were suspended in RPMI 1640 medium containing 5% human serum of blood type-AB, 0.1 mM nonessential amino acid, 1 mM sodium pyruvate, 2 mM L-glutamine (hereinabove manufactured by Bio Whittaker), 10 mM HEPES (manufactured by nakalai tesque), and 1% streptomycin-penicillin (manufactured by Gibco BRL) (hereinafter simply referred to as “5HRPMI medium”) so as to have a concentration of 1×10^7 cells/mL. Thereafter, 15 ml of the suspension was spread on a 100-mm petri dish (manufactured by Asahi Techno Glass), and the cells were incubated in a wet-type incubator at 37° C. in the presence of 5% CO2 for 1.5 hours. […]
The synthesis of cDNA was carried out in accordance with the method described in item (2) of Example 1, provided that the combination of the solutions of fluorescence-labeled DNA was in accordance with that shown in Table 6. […]
The fluorescence signal was scanned for each spot of the above-mentioned chip by using Affymetrix 428 Array Scanner (manufactured by Takara Shuzo Co., Ltd.). The fluorescence signal was quantified for each spot by using ImaGene (manufactured by Takara Shuzo Co., Ltd., BD001) on the bases of the image data. […]

[4] = clones decreased by treatment with TPA
[5] = clones increased by treatment with TPA

Expression of Group G genes (Heme oxygenase-1 HMOX1; Table 7) ([3]; DGE+LPS versus negative control): increased
Compound: O=C1C=CC(CO)OC1O [DGE, L-glycero-1,5-epoxy-1αβ,6-dihydroxy-cis-hex-3-en-2-one]
Expression of Group C-3 clones (NDRG1, ADAR, SF3B2, ILF3, VARS2, SEQ ID NO: 12; Tables 9, 11) [1, 4]: further decreased
Expression of Group D-3 clones (EEF1A1, RPL17, RPL24, SFRS2, TPT1, UQCRB, RPS15A, RPL27; Tables 10, 11) [1, 4]: further increased
Expression of Group A-3 clones (STAT6, FLJ22298 fis clone HRC04637; Tables 9, 11) [1, 5]: further decreased
Expression of Group B-3 clones (SUI1, HSPC014; Tables 9, 11) [1, 5]: further increased
Expression of Group A-1 genes (BMP-6, CCR-1, HGF, ICAM-1, IL-1β, IL-16, LIF, Osteopontin, TNF-α, Neuropilin-1; Table 5) [2]: suppressed
Expression of Group B-1 genes (Heme oxygenase-1, Thioredoxin reductase-1; Table 5) [2]: accelerated
Increase by LPS in expression of Group E genes (IL2RA, IL6, CD166, IRF1, IL15RA, NFKB1, CASP1, IL1B, TNF-α, GRO1, IL1A, INHBA, IL7R, PBEF, LARC, IL8; Table 7) ([3]; 10 μL of 20 mM DGE aqueous solution in 10 mL medium, 4 hours, then LPS, total RNA 4 hours thereafter): suppressed
Expression of Group F genes (CSF1R, CXCR4, ENG; Table 7) ([3]; genes not fluctuating by LPS, DGE+LPS versus negative control): decreased
